Reference: article PMC12566971, “Polyprenylated Acylphloroglucinols from Hypericum rochelii and Hypericum olympicum—Cytotoxic Effects on Non-Tumorigenic Cell Lines and Antibacterial Potential” (Pharmaceuticals, 2025)
Converted amounts (≈) assume the structure as drawn. “And” between values parts separate entries of the source, which are not always exact repeats. Equal entries are not always repeated. Where two headings read alike, the source gives them in different places.

Experiments:
Enterococcus faecalis [1] = test: MIC and MBC evaluation (broth microdilution, agar plate assay); assay type: cell-based
Procedure: (§1) The MIC and MBC assessment on the pathogenic bacteria and the candidate probiotic lactic acid bacteria was carried out by the broth microdilution assay (BMD) and the agar plate assay, respectively, as described in [4]. The metabolic (dehydrogenase) activity of the lactic acid bacteria was assessed as described in [4].
(§2) P. aeruginosa PAO1 ATCC 15692 was purchased from the American Type Cell Culture Collection (ATCC, Manassas, VA, USA). S. mutans DSM 20523 was bought from the German Collection of Microorganisms and Cell Cultures (DSMZ GmbH, Braunschweig, Germany). All other bacteria and strains were purchased as described in [4].

Streptococcus pyogenes = test: as above; assay type: cell-based
Procedure: as §1, §2

[2] = tested on: Lactiplantibacillus plantarum; test: MIC evaluation on lactobacilli (broth microdilution); assay type: cell-based
Procedure: (§3) The MIC and MBC assessment on the pathogenic bacteria and the candidate probiotic lactic acid bacteria was carried out by the broth microdilution assay (BMD) and the agar plate assay, respectively, as described in [4]. The metabolic (dehydrogenase) activity of the lactic acid bacteria was assessed as described in [4]. Lactobacilli of different origins from the collection of Laboratory “Lactic Acid Bacteria and Probiotics”, the Stephan Angeloff Institute of Microbiology, Bulgarian Academy of Sciences (Sofia, Bulgaria), were selected (Table 13). The strains had been assessed previously, as candidate probiotics, according to the in vitro criteria recommended by the EFSA and the WHO guidelines. They were stored at −20 °C in MRS broth (Merck Group, Darmstadt, Germany) supplemented with 20% v/v sterile glycerol. Prior to the experiments, lactobacilli were subcultured twice in MRS broth (GM369, HiMedia, Mumbai, India) at 37 °C. An overnight exponential-phase culture (5% v/v inoculum) was used for the tests.

[3] = tested on: Limosilactobacillus fermentum; test: as above; assay type: cell-based
Procedure: as §3

HGF cells = test: Western blot for autophagy proteins Atg5, Atg7; assay type: cell-based, human; conditions: MIC for S. aureus, relative to untreated control
Procedure: For Western blot, CCL-1 and HGF cell lines were chosen, and they were seeded in either 6-well plates or 55 mm Petri dishes suitable for cell culture. They were treated with an exposure time of 24 h in an incubator (Panasonic MCO-18AC, Panasonic Healthcare Ltd., […], Japan). […] Hans-Jörg Eibl. In addition, a higher concentration of an […] added to one of the tests for comparison. The samples were trypsinized, collected, washed with PBS (TS1101, HiMedia, Mumbai, India), centrifuged, and frozen at -80 °C if storage was necessary. Then they were lysed on ice with a buffer containing 100 mM Tris-HCl (648313, Sigma-Aldrich, St. Louis, MO, USA) at pH 8.0, 4% sodium dodecyl sulfate (SDS, […], Sigma-Aldrich), 20% glycerol (49779, Sigma-Aldrich), 1% Na3VO4 (450243, Sigma-Aldrich), 200 mM dithiothreitol (DTT, 3483-12-3, Sigma-Aldrich, Burlington, MA, USA) supplemented with protease inhibitor (05892970001, Roche). The cell lysate was heated to boiling for 15 min, then centrifuged at 13,000 rpm for 10 min at 4 °C. Lysates were subjected to denaturing SDS polyacrylamide gel electrophoresis on acrylamide 4-20% gradient Mini-PROTEAN® TGXTM Stain-Free gels (4568094, Bio-Rad Laboratories, Hercules, CA, USA). […] Densitometric calculation and analysis was performed with Quantity One software version 4.6.9 (Bio-Rad Laboratories).

[4] = tested on: human total cytochrome P450 (CYP450); test: ELISA for total cytochrome P450 in HEPG2 cells; assay type: in vitro ADME; conditions: HEPG2, 24 h, concentrations inhibiting S. aureus
Procedure: The effect on CYP450 was tested using the ELISA method on the HEPG2 liver cell line. As mentioned, it has weak or absent expression of the CYP450 superfamily, e.g., CYP3A4, CYP1A2, etc., and that low basal activity makes it a good model for studies of CYP inducers. In addition, these cells have the advantage of immortalization due to their cancerous nature. The standard curves after the two ELISA tests (Figure S7) were prepared as a standard dose–response curve, also called a four-parameter logistic (4-PL) curve.
Human total cytochrome P450 was examined using the Human Cytochrome P450 ELISA Kit (MBS705506, MyBioSource, San Diego, CA, USA) according to the manufacturer’s instructions. HEPG2 cells were seeded at a concentration of 100,000 cells/mL in a 6-well plate, and the overnight culture was treated with selected Hypericum agents. After 24 h of exposure, the protocol was performed according to the kit instructions.
The test principle uses the sandwich quantitative enzyme immunoassay technique. A microplate was pre-coated with an antibody specific for cytochrome P450. Standards and samples were pipetted into the wells, and if cytochrome P450 molecules were present, they were bound by the immobilized antibody. […] The color development was stopped, and its intensity was measured on a microplate reader ELx800 (BioTek Instruments, Inc., Winooski, VT, USA).

Enterococcus faecalis [5] = conditions: ref [4],[29]; cited from earlier work
[6] = bactericidal if ≤ 4, bacteriostatic if > 4

CC(C)=CCCC1(C)C(CC=C(C)C)CC2C(=O)C1(C(=O)C(C)C)C(=O)C(CC=C(C)C)=C2O (stereo not shown) [Olympiforin B]
MBC (Enterococcus faecalis [1]; Enterococcus faecalis): 55 µg/mL and 98 µM
MBC/MIC ratio, E. faecalis (Enterococcus faecalis [1]; [6]): 14
MBC (Streptococcus pyogenes; Streptococcus pyogenes): 60 µg/mL and 107 µM
MBC/MIC ratio, S. pyogenes (Streptococcus pyogenes; [6]): 15
MIC ([2]; strain Lpl 11, read-out: MIC, Lpl 11): 2 µg/mL (≈ 4.27 µM)
MIC ([2]; strain Lpl 25, read-out: MIC, Lpl 25): 2 µg/mL (≈ 4.27 µM)
MIC ([2]; strain Lpl.AC11S, read-out: MIC, Lpl.AC11S): 2 µg/mL (≈ 4.27 µM)
MIC ([2]; strain Lpl.L6, read-out: MIC, Lpl.L6): 4 µg/mL (≈ 8.53 µM)
MIC ([3]; strain Lf53, read-out: MIC, Lf53): 2 µg/mL (≈ 4.27 µM)
MIC ([3]; strain Lf98, read-out: MIC, Lf98): 2 µg/mL (≈ 4.27 µM)
Increase of Atg5 and Atg7 proteins (HGF cells): 106–135%
Induction of total CYP450 [4]: hardly induce
MIC on bacteria, E. faecalis (Enterococcus faecalis [5]): 4 µg/mL (≈ 8.53 µM)
